Common to all, as to format: functional
In one assay the test system is Galinsoga quadriradiata. Briefly: Post-emergence herbicidal activity against four-leafstage of Galinsoga quadriradiata assessed as efficacy of weed growth control at 40 g ai/ha under greenhouse conditions.
The next assay concerns Chenopodium album. Briefly: Post-emergence herbicidal activity against two-leaf stage Chenopodium album assessed as efficacy of weed growth control at 60 g ai/ha under greenhouse conditions.
The test system of assay [1] is Cyperus microiria. Briefly: Post-emergence herbicidal activity against three-leaf stage Cyperus microiria assessed as efficacy of weed growth control at 750 g ai/ha under greenhouse conditions.
In a further assay the test system is Elymus repens. Briefly: Post-emergence herbicidal activity against three to four-leaf stage Elymus repens (couch grass) assessed as efficacy of weed growth control at 80 g ai/ha under greenhouse conditions.
A further assay deals with Amaranthus viridis. Kind of assay: Post-emergence herbicidal activity against three-leaf stage Amaranthus viridis assessed as efficacy of weed growth control at 60 g ai/ha under greenhouse conditions.
The test system of another assay is Commelina communis. Kind of assay: Post emergence herbicidal activity against two-leaf stage Commelina communis (Asiatic dayflower) assessed as efficacy of weed growth control at 60 g ai/ha under greenhouse conditions.
The test system of another assay is Setaria viridis. Kind of assay: Post-emergence herbicidal activity against two-leaf stage Setaria viridis (green foxtail) assessed as efficacy of weed growth control at 750 g ai/ha under greenhouse conditions.
The test system of assay [2] is Cyperus microiria. Briefly: Post-emergence herbicidal activity against three-leaf stage Cyperus microiria assessed as efficacy of weed growth control at 40 g ai/ha under greenhouse conditions.

`COc1cc(OC)nc(NC(=O)NS(=O)(=O)c2ncccc2C(=O)N(C)C)n1` [NICOSULFURON]: the Efficacy is 70% in the assay on Galinsoga quadriradiata; 70% with Chenopodium album; 95% with Cyperus microiria [1]; 95% with Elymus repens; 95% in the assay with Amaranthus viridis; 95% with Commelina communis. Further, the Efficacy amounted to 70% in the assay with Setaria viridis and 95% in the assay with Cyperus microiria [2].
